Measurements as given in patent publication EP0189971A2, “Composition containing a thiadiazole derivative and method for treating plants against bacteria” (PALIMPORT LTD., priority 1985, dated 1986).
Where two headings read alike, the source gives them in different places.

Legend:
Pseudomonas tomato [1] = settings: cupric acetate 0.1 %
Experimental: In all trials, seed disinfection was carried out by dipping the seeds in different chemical solutions. The variable factors were: • 1. Different times of dipping: 10, 20, 30 and 60 minutes. • 2.. Different temperatures of dipping: room temperature (20°C), and a higher temperature (45°C).
(§1) In this method, the efficacy of the disinfection is examined by a bioassay. After seed disinfection, the seeds are dried and sown in the soil, and kept in a humid cell with suitable temperature. The efficacy of the treatment is determined by the level of infestation in the seedlings.
In tomatoes, disinfection trials were carried out against two bacterial diseases. Most of the work was done in order to examine the efficacy of the mixtures in controlling bacterial specic of tomato caused by Pseudomonas tomato. Later on some trials were carried out against a relatively new disease in Israel - "rotten pith" caused by P. coruoata. Trial 7
Also, different dipping times and temperatures were checked. Efficacy of disinfection was evaluated by assessing the disease appearance in the seedlings which was caused by infection of the treated seeds.

X. campestris = settings: for Percent of infected seedlings: cupric acetate 0.1 %
Experimental: as §1
Trials were carried out in seeds of cabbage and cauliflower infested with Xanthomonas camoestris. […] Seeds were dipped in all treatments for 10 to 20 minutes at temperatures of 25°C and 45°C.
The efficacy of the disinfection process was checked in a bio assay system.

X. translucens = settings: for Bacteria per gr. seeds: cupric acetate 0.1%, infected seeds
Experimental: In this method, live bacterial pathogens that survived the seed disinfection, were counted. Treated seeds were dried by vaporization. Five grams of dried seeds from each treatment were ground in a grinder of 20 mesh and transferred to a solution containing 0.1% agar in water and were shaken for 30 minutes. From each sample, 10x dilutions were prepared. From each of the various dilutions, 0.1 ml was taken and placed in a suitable medium in a petri-dish, with a Drigalski stick. After 4 days of incubation at temperature of 27°C, colonies of the bacterial pathogens were counted in each petri-dish.
The assessment of efficacy was carried out by counting of the number of bacteria that remained alive in the seeds after the disinfection and in a bio-assay system. (See Materials and Methods).
In this trial the efficacy of the products in disinfecting wheat seeds was tested at various periods of time from 5 to 60 minutes. Disinfected seeds were compared with seeds treated with water (check) and with seeds that were defined in laboratory as seeds clean from the pathogen. Efficacy of the treatments was measured by counting the amount of bacteria that remained alive in the seeds. The trial was carried out in five replicates.

Pseudomonas tomato [2] = experiment: Preventative foliage spraying of tomato seedlings in greenhouse; assay type: in vivo; settings: for Average level of ill seedlings: Cupric acetate 0.15 %, levels 0-5
Experimental: The trials were carried out against bacterial diseases in the following crops: • a. In pepper - Bacterial spot of pepper (Xanthomonas vesicatoria). • b. In tomatoes - Bacterial specic of tomato (Pseudomonas tomato). • c. In cauliflower - Black rot (Xanthomonas camoestris). • 2. […].
In trials that were carried out in the greenhouse, plants at age of 3 - 5 leaves that were grown in "speedling system", were used. Plants were allowed to grow in the original trays without contact between them.
About 48 hours before the infection, the bacterial pathogen was transferred (for multiplication) to a suitable growth medium (see materials and methods of para I hereinbefore)at optimal temperature until all the medium was covered by bacteria. Then a suspension of bacteria at concentration of 1 x 10' - […] per cm^2 was prepared. The bacterial suspension was sprayed to runoff with a hand sprayer on to the leaves of the test plants. Spraying was made on dry leaves with the addition of carborundum to the spray solution in order to ensure better infection. In trials where the efficacy of the treatments was evaluated in preventative treatments, the application was given a few hours before the bacterial infection.
In the preventative treatments, the products were applied a few hours before the bacterial infection. In the curative treatments, the application was carried out 20 hours after bacterial infection. After application, when plants dried out they were transferred to a fog chamber with controlled conditions.
In trials that were carried out in the greenhouse, the plants were transferred after the application and infection, to control conditions of fogginess and suitable temperatures for bactena, till the end of the trial.
Infection was evaluated in the seedlings according to the following key: 0 = healthy seedling, without symptoms of disease, 5 = complete coverage of the seedling with spots of disease, or dead seedling. The intermediate degrees were given according to the severity of the disease in the leaves.
In tomatoes, several trials were carried out in greenhouse under conditions of fog chamber and artificial infection in order to evaluate the efficacy of Terrazole (trade mark) and copper, in different rates and combinations, in preventing and controlling bacterial diseases specic of tomato caused by Pseudomonastomato.
In one trial, various treatments were examined in prevention of disease, as appears in Table IX.

[3] = system: Pseudomonas tomato, Xanthomonasvesicatoria, X. translucens, X. camoestris; settings: 0.8% cupric acetate in aqueous solution; each of the four species
Experimental: G. Evaluation of product activity by direct contact with the bacteria: • The efficacy of a number of products by a direct contact with the bacteria was checked as follows: Preparation of solutions of different concentrations of the examined products. Soaked bacteria suspension in the solutions for a period of 10 minutes. Filtration of the solution containing bacteria through milipore disc, so that the bacteria are concentrated on the disc. Rinsing the disc with distilled water. Placing the disc in a measured amount of water with 0.1 % agar, and shaking the disc in this solution in order to transfer the bacteria from the disc to the solution. Making 10x dilutions and direct placing on suitable medium (see section F1 above).
In this trial, 11 concentrations of cupric-acetate in aqueous solution were checked, from 0.001 - 0.8% by weight. […] All treatments were checked against the four species of bacteria mentioned.

cupric acetate
% Infected plants (Pseudomonas tomato [1]; dipping 10 minutes, 25 °C): 28.0%
Improvement in control, in comparison with the untreated control (Pseudomonas tomato [1]; dipping 10 minutes, 25 °C): 37.8
% Infected plants (Pseudomonas tomato [1]; dipping 10 minutes, 40 °C): 17.0%
Improvement in control, in comparison with the untreated control (Pseudomonas tomato [1]; dipping 10 minutes, 40 °C): 62.2
% Infected plants (Pseudomonas tomato [1]; dipping 20 minutes, 25 °C): 27.5%
Improvement in control, in comparison with the untreated control (Pseudomonas tomato [1]; dipping 20 minutes, 25 °C): 38.9
% Infected plants (Pseudomonas tomato [1]; dipping 20 minutes, 40 °C): 14.0%
Improvement in control, in comparison with the untreated control (Pseudomonas tomato [1]; dipping 20 minutes, 40 °C): 68.9
Percent of infected seedlings (X. campestris; 25 °C 10 min.): 78.6%
Percent of infected seedlings (X. campestris; 25 °C 20 min.): 56.0%
Percent of infected seedlings (X. campestris; 40 °C 10 min.): 45.0%
Percent of infected seedlings (X. campestris; 40 °C 20 min.): 35.0%
disease control (X. campestris; cupric acetate, at any of the trial conditions): ≤ 38%
Bacteria per gr. seeds (X. translucens; 5 minutes): 6040 b per gr. seeds
Bacteria per gr. seeds (X. translucens; 10 minutes): 2920 b per gr. seeds
Bacteria per gr. seeds (X. translucens; 20 minutes): 496 b per gr. seeds
control in comparison with the untreated seeds (X. translucens; cupric acetate, dipping 20 minutes): 94%
Percent of ill seedlings (Pseudomonas tomato [2]; Cupric acetate 0.1 %, preventative spraying, ten days after the infection): 34.2%
Average level of ill seedlings (Pseudomonas tomato [2]; 9 days after infection): 0.30
Average level of ill seedlings (Pseudomonas tomato [2]; 11 days after infection): 1.85
Average level of ill seedlings (Pseudomonas tomato [2]; 13 days after infection): 2.80
bacteria remained alive [3]: about 10^3 bacteria per cm^2 of water
